From patent US12077503B2, “Substituted cyclic amides and their use as herbicides” (FMC CORPORATION, priority 2015, dated 2024)

Legend:
Format in all cases: in vivo
[1] = system: pigweed (Amaranthus retroflexus); experiment: Test A preemergence; conditions: Amaranthus retroflexus, pre-emergence, 240 h, 0 to 100 scale where 0 is no effect and 100 is complete control, read-out: Pigweed plant response rating; for pest or weed control at 31 g/ha: 31 g ai/ha, Preemergence; for pest or weed control at 125 g/ha: 125 g ai/ha, preemergence, approx. 10 d
Kochia (Kochia scoparia) [2] = experiment: Test A preemergence; conditions: Bassia scoparia, pre-emergence, 240 h, 0 to 100 scale where 0 is no effect and 100 is complete control, read-out: Kochia plant response rating; for pest or weed control at 31 g/ha: 31 g ai/ha, Preemergence; for pest or weed control at 125 g/ha: 125 g ai/ha, preemergence, approx. 10 d
In short: (§1)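 Greenhouse, ~10 d after spray; visual injury vs untreated controls, 0 = no effect, 100 = complete control. Preemergence: directed soil spray over planted seeds. Postemergence: plants 2–10 cm, 1–2 leaf stage. Loam/sand blend. Compound in non-phytotoxic solvent with surfactant.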

[3] = system: barnyardgrass (Echinochloa crus-galli); experiment: Test A preemergence; conditions: Echinochloa crus-galli, pre-emergence, 240 h, 0 to 100 scale where 0 is no effect and 100 is complete control, read-out: Barnyardgrass plant response rating; for pest or weed control at 31 g/ha: 31 g ai/ha, Preemergence; for pest or weed control at 125 g/ha: 125 g ai/ha, preemergence, approx. 10 d
In short: as §1

[4] = system: ragweed (common ragweed, Ambrosia elatior); experiment: Test A preemergence; conditions: Ambrosia artemisiifolia, pre-emergence, 240 h, 0 to 100 scale where 0 is no effect and 100 is complete control, read-out: Ragweed plant response rating; for pest or weed control at 31 g/ha: 31 g ai/ha, Preemergence; for pest or weed control at 125 g/ha: 125 g ai/ha, preemergence, approx. 10 d
In short: as §1

[5] = system: giant foxtail (Setaria faberii); experiment: Test A preemergence; conditions: Setaria faberi, pre-emergence, 240 h, 0 to 100 scale where 0 is no effect and 100 is complete control, read-out: Foxtail, Giant plant response rating; for pest or weed control at 31 g/ha: 31 g ai/ha, Preemergence; for pest or weed control at 125 g/ha: 125 g ai/ha, preemergence, approx. 10 d
In short: as §1

[6] = system: ryegrass, Italian (Italian ryegrass, Lolium multiflorum); experiment: Test A preemergence; conditions: Lolium multiflorum, pre-emergence, 240 h, 0 to 100 scale where 0 is no effect and 100 is complete control, read-out: Ryegrass, Italian plant response rating; for pest or weed control at 31 g/ha: 31 g ai/ha, Preemergence; for pest or weed control at 125 g/ha: 125 g ai/ha, preemergence, approx. 10 d
In short: as §1

[7] = system: pigweed (Amaranthus retroflexus); experiment: Test A postemergence; conditions: Amaranthus retroflexus, post-emergence, 240 h; for pest or weed control at 125 g/ha: 125 g ai/ha, postemergence, visual injury on 0 to 100 scale (0 no effect, 100 complete control), approx. 10 d, read-out: Pigweed plant response rating; for pest or weed control at 31 g/ha: Postemergence, 31 g ai/ha, visual injury after approx. 10 d, 0 to 100 scale, 0 no effect, 100 complete control, read-out: Plant response rating, Pigweed
In short: as §1

[8] = system: blackgrass (Alopecurus myosuroides); experiment: Test A postemergence; conditions: Alopecurus myosuroides, post-emergence, 240 h; for pest or weed control at 125 g/ha: 125 g ai/ha, postemergence, visual injury on 0 to 100 scale (0 no effect, 100 complete control), approx. 10 d, read-out: Blackgrass plant response rating; for pest or weed control at 31 g/ha: Postemergence, 31 g ai/ha, visual injury after approx. 10 d, 0 to 100 scale, 0 no effect, 100 complete control, read-out: Plant response rating, Blackgrass
In short: as §1

Kochia (Kochia scoparia) [9] = experiment: Test A postemergence; conditions: Bassia scoparia, post-emergence, 240 h; for pest or weed control at 125 g/ha: 125 g ai/ha, postemergence, visual injury on 0 to 100 scale (0 no effect, 100 complete control), approx. 10 d, read-out: Kochia plant response rating; for pest or weed control at 31 g/ha: Postemergence, 31 g ai/ha, visual injury after approx. 10 d, 0 to 100 scale, 0 no effect, 100 complete control, read-out: Plant response rating, Kochia
In short: as §1

[10] = system: barnyardgrass (Echinochloa crus-galli); experiment: Test A postemergence; conditions: Echinochloa crus-galli, post-emergence, 240 h; for pest or weed control at 125 g/ha: 125 g ai/ha, postemergence, visual injury on 0 to 100 scale (0 no effect, 100 complete control), approx. 10 d, read-out: Barnyardgrass plant response rating; for pest or weed control at 31 g/ha: Postemergence, 31 g ai/ha, visual injury after approx. 10 d, 0 to 100 scale, 0 no effect, 100 complete control, read-out: Plant response rating, Barnyardgrass
In short: as §1

[11] = system: ragweed (common ragweed, Ambrosia elatior); experiment: Test A postemergence; conditions: Ambrosia artemisiifolia, post-emergence, 240 h; for pest or weed control at 125 g/ha: 125 g ai/ha, postemergence, visual injury on 0 to 100 scale (0 no effect, 100 complete control), approx. 10 d, read-out: Ragweed plant response rating; for pest or weed control at 31 g/ha: Postemergence, 31 g ai/ha, visual injury after approx. 10 d, 0 to 100 scale, 0 no effect, 100 complete control, read-out: Plant response rating, Ragweed
In short: as §1

[12] = system: giant foxtail (Setaria faberii); experiment: Test A postemergence; conditions: Setaria faberi, post-emergence, 240 h; for pest or weed control at 125 g/ha: 125 g ai/ha, postemergence, visual injury on 0 to 100 scale (0 no effect, 100 complete control), approx. 10 d, read-out: Foxtail, Giant plant response rating; for pest or weed control at 31 g/ha: Postemergence, 31 g ai/ha, visual injury after approx. 10 d, 0 to 100 scale, 0 no effect, 100 complete control, read-out: Plant response rating, Foxtail, Giant
In short: as §1

[13] = system: wheat (Triticum aestivum); experiment: Test A postemergence; conditions: Triticum aestivum, post-emergence, 240 h; for plant injury at 125 g/ha: 125 g ai/ha, postemergence, visual injury on 0 to 100 scale (0 no effect, 100 complete control), approx. 10 d, read-out: Wheat plant response rating; for plant injury at 31 g/ha: Postemergence, 31 g ai/ha, visual injury after approx. 10 d, 0 to 100 scale, 0 no effect, 100 complete control, read-out: Plant response rating, Wheat
In short: as §1

[14] = system: Galium (catchweed bedstraw, Galium aparine); experiment: Test A postemergence; conditions: Galium, post-emergence, 240 h; for pest or weed control at 125 g/ha: 125 g ai/ha, postemergence, visual injury on 0 to 100 scale (0 no effect, 100 complete control), approx. 10 d, read-out: Galium plant response rating; for pest or weed control at 31 g/ha: Postemergence, 31 g ai/ha, visual injury after approx. 10 d, 0 to 100 scale, 0 no effect, 100 complete control, read-out: Plant response rating, Galium
In short: as §1

corn (Zea mays) = experiment: Test A postemergence; conditions: Zea mays, post-emergence, 240 h; for plant injury at 125 g/ha: 125 g ai/ha, postemergence, visual injury on 0 to 100 scale (0 no effect, 100 complete control), approx. 10 d, read-out: Corn plant response rating; for Corn plant response rating (crop injury, 0 = no effect, 100 = complete kill) at 31 g/ha: Postemergence, 31 g ai/ha, visual injury after approx. 10 d, 0 to 100 scale, 100 complete control
In short: as §1

[15] = system: ryegrass, Italian (Italian ryegrass, Lolium multiflorum); experiment: Test A postemergence; conditions: Lolium multiflorum, post-emergence, 240 h; for pest or weed control at 125 g/ha: 125 g ai/ha, postemergence, visual injury on 0 to 100 scale (0 no effect, 100 complete control), approx. 10 d, read-out: Ryegrass, Italian plant response rating; for pest or weed control at 31 g/ha: Postemergence, 31 g ai/ha, visual injury after approx. 10 d, 0 to 100 scale, 0 no effect, 100 complete control, read-out: Plant response rating, Ryegrass, Italian
In short: as §1

[16] = system: ducksalad (Heteranthera limosa); experiment: Test B flooded paddy test; conditions: Heteranthera limosa, 250 g ai/ha, Flood; 0 to 100 scale where 0 is no effect and 100 is complete control; read-out: Ducksalad plant response rating
In short: (§2)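 Flooding to 3 cm over soil accompanied treatment, which consisted of adding compound to the standing water around 2-leaf plants; depth was then maintained. Visual assessment versus controls followed at 13 to 15 d (scale 0–100, 0 meaning no effect).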

[17] = system: barnyardgrass (Echinochloa crus-galli); experiment: Test B flooded paddy test; conditions: Echinochloa crus-galli, 250 g ai/ha, Flood; 0 to 100 scale where 0 is no effect and 100 is complete control; read-out: Barnyardgrass plant response rating
In short: as §2

[18] = system: sedge, umbrella (small-flower umbrella sedge, Cyperus difformis); experiment: Test B flooded paddy test; conditions: Cyperus difformis, 250 g ai/ha, Flood; 0 to 100 scale where 0 is no effect and 100 is complete control; read-out: Sedge, Umbrella plant response rating
In short: as §2

rice (Oryra sativa) = experiment: Test B flooded paddy test; conditions: Oryza sativa, 250 g ai/ha, Flood; 0 to 100 scale where 0 is no effect and 100 is complete control; read-out: Rice plant response rating
In short: as §2

Structure (SMILES)	pest or weed control at 31 g/ha [1] [%]	pest or weed control at 125 g/ha [1] [%]	pest or weed control at 31 g/ha (Kochia (Kochia scoparia) [2]) [%]	pest or weed control at 125 g/ha (Kochia (Kochia scoparia) [2]) [%]	pest or weed control at 31 g/ha [3] [%]	pest or weed control at 125 g/ha [3] [%]	pest or weed control at 31 g/ha [4] [%]	pest or weed control at 125 g/ha [4] [%]	pest or weed control at 31 g/ha [5] [%]	pest or weed control at 125 g/ha [5] [%]	pest or weed control at 31 g/ha [6] [%]	pest or weed control at 125 g/ha [6] [%]	pest or weed control at 125 g/ha [7] [%]	pest or weed control at 31 g/ha [7] [%]	pest or weed control at 125 g/ha [8] [%]	pest or weed control at 31 g/ha [8] [%]	pest or weed control at 125 g/ha (Kochia (Kochia scoparia) [9]) [%]	pest or weed control at 31 g/ha (Kochia (Kochia scoparia) [9]) [%]	pest or weed control at 125 g/ha [10] [%]	pest or weed control at 31 g/ha [10] [%]	also measured
O=C(Nc1ccc(F)c(F)c1F)[C@H]1C(=O)N(O)CC[C@@H]1c1ccc(C(F)(F)F)cc1 [Compound 1108]	0	0	0	0	0	0	0	0	0	0	0	0	0	0	0	0	0	0	0	0	pest or weed control at 125 g/ha [11]: 0%; pest or weed control at 31 g/ha [11]: 0%; pest or weed control at 125 g/ha [12]: 0%; pest or weed control at 31 g/ha [12]: 0%; plant injury at 125 g/ha [13]: 0%; plant injury at 31 g/ha [13]: 0%; pest or weed control at 125 g/ha [14]: 0%; pest or weed control at 31 g/ha [14]: 0%; plant injury at 125 g/ha (corn (Zea mays)): 0%; Corn plant response rating (crop injury, 0 = no effect, 100 = complete kill) at 31 g/ha (corn (Zea mays)): 0%; pest or weed control at 125 g/ha [15]: 0%; pest or weed control at 31 g/ha [15]: 0%; pest or weed control at 250 g/ha [16]: 85%; pest or weed control at 250 g/ha [17]: 40%; pest or weed control at 250 g/ha [18]: 75%; pest or weed control at 250 g/ha (rice (Oryra sativa)): 20%
CN1C[C@H](c2ccc(C(F)(F)F)nc2)[C@@](C)(C(=O)Nc2cccc(F)c2F)C1=O [Compound 1109]	70	90	0	70	100	100	0	50	100	100	60	80	60	20	40	20	70	20	100	90	pest or weed control at 125 g/ha [11]: 50%; pest or weed control at 31 g/ha [11]: 0%; pest or weed control at 125 g/ha [12]: 90%; pest or weed control at 31 g/ha [12]: 70%; plant injury at 125 g/ha [13]: 60%; plant injury at 31 g/ha [13]: 30%; pest or weed control at 125 g/ha [14]: 50%; pest or weed control at 31 g/ha [14]: 30%; plant injury at 125 g/ha (corn (Zea mays)): 80%; Corn plant response rating (crop injury, 0 = no effect, 100 = complete kill) at 31 g/ha (corn (Zea mays)): 40%; pest or weed control at 125 g/ha [15]: 50%; pest or weed control at 31 g/ha [15]: 0%; pest or weed control at 250 g/ha [16]: 90%; pest or weed control at 250 g/ha [17]: 85%; pest or weed control at 250 g/ha [18]: 0%; pest or weed control at 250 g/ha (rice (Oryra sativa)): 50%
